Values after ≈ are worked out from the molar mass of the structure shown. Where a SMILES comes first, the peptide text is derived from it. [ ]: non-standard residue; d: D form. The star is where a group is joined. PEG8 = NCCOCCOCCOCCOCCOCCOCCOCCOCCC(=O)O; Myristoyl = CCCCCCCCCCCCCC(=O)*
Legend:
porcine red blood cells = assay type: cell-based; conditions: pH 7.4
Description: Fresh porcine red blood cells were used to study the hemolysis of self‐assembled peptide nanoparticles.^[ [48] ^] The red blood cells were collected by washing with PBS (10 × 10^−3 M, pH 7.4) until the supernatant became clear. A 10% v/v red blood cell suspension was prepared with PBS, and peptide nanoparticles with a final concentration of 128 × 10^−6 M were added to the suspension (1 mL). After gentle incubation at 37 °C for 2 h, the cells were centrifuged at 6000 rpm for 5 min, and the absorbance of the supernatant was measured at 570 nm. Two red blood cell suspensions (one containing 0.2% Triton X‐100, the other without peptide nanoparticles) were used as positive and negative controls, respectively. The hemolysis of each sample was calculated, and images were collected.

chymotrypsin = biological target: T1, chymotrypsin (Bos taurus, UniProt P00766); assay: Protease stability assay (MIC and RP-HPLC read-out); assay type: in vitro ADME; conditions: equal volumes of peptide 2560 × 10^−6 M and chymotrypsin 8 mg mL^−1, 37 °C, 1 h; MIC vs E. coli ATCC25922 and S. aureus ATCC6538; n = 6
T1 construct: purchased Sigma-Aldrich (China)
Description: (§1) An equal volume of peptide nanoparticles (2560 × 10^−6 M) and pepsin, trypsin, or chymotrypsin (8 mg mL^−1) was mixed and incubated at 37 °C for 1 h. Then, the MICs of peptide nanoparticles against E. coli ATCC25922 and S. aureus ATCC6538 were measured using the above‐mentioned method. Each test was performed in duplicate and repeated three times.
(§2) For RP‐HPLC, an equal volume of peptide nanoparticles (2560 × 10^−6 M) and pepsin, trypsin, or chymotrypsin (4 or 8 mg mL^−1) was mixed. The mixed solution was incubated at 37 °C for a predetermined time (0, 2, 4, or 8 h), and the protease was completely inactivated by heating in boiling water at 100 °C for 5 min. The concentration of peptide nanoparticles in the samples was then diluted to 256 × 10^−6 M, and the samples were analyzed using an RP‐HPLC system equipped with an Acchorm Unitary C18 column (5 µm, 100 Å, 4.6 mm × 250 mm). A gradient of 42% to 96% acetonitrile in water with 0.1% trifluoroacetic acid was used as the mobile phase at a flow rate of 0.8 mL min^−1. UV detection was performed at a wavelength of 214 nm.

trypsin = assay: as above; assay type: in vitro ADME; conditions: equal volumes of peptide 2560 × 10^−6 M and trypsin 8 mg mL^−1, 37 °C, 1 h; MIC vs E. coli ATCC25922 and S. aureus ATCC6538; n = 6
Description: as §1, §2

pepsin = biological target: T2, pepsin (Sus scrofa, UniProt P00791); assay: as above; assay type: in vitro ADME; conditions: for Antibacterial activity (MIC) after treatment with pepsin: equal volumes of peptide 2560 × 10^−6 M and pepsin 8 mg mL^−1, 37 °C, 1 h, MIC vs E. coli ATCC25922 and S. aureus ATCC6538, n = 6; for RP-HPLC peak shape and area after treatment with pepsin: pepsin 4 or 8 mg mL^−1, 37 °C, 8 h vs 0 h control, C18 RP-HPLC, UV 214 nm
T2 construct: purchased Sigma-Aldrich (China)
T2 sequence (P00791 60-385): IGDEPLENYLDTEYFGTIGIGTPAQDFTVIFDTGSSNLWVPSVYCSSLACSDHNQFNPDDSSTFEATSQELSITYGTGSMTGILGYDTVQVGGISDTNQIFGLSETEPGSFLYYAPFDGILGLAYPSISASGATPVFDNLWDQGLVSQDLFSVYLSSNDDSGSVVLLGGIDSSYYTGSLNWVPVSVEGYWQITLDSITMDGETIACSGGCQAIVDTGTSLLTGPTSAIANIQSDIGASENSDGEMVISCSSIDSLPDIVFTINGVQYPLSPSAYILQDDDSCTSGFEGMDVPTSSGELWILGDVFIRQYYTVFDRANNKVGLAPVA
Description: as §1, §2

C57BL/6 mice = conditions: mouse, in vivo, ip
Description: Healthy female C57BL/6 mice (weight is about 20 g) were randomly divided into five groups with six replicates per group. Mice were acclimated for 3 d in an environment of suitable temperature (20–24 °C), humidity (50–60%), and alternating light and dark. During the assay, the first group of mice was intraperitoneally injected with 150 µL of saline (once daily), and the second to fifth groups of mice were intraperitoneally injected with 150 µL nanoparticles NPs1 or NPs2 at doses of 15 and 30 mg kg^−1 (once daily). Continuous injection was given for 7 days. At 12 h after the last administration, the mice were euthanized using mild ether anesthesia. Blood samples were taken from the mice's orbital vein, and serum was analyzed using an automatic biochemical analyzer. The kidneys and livers of the mice were taken, weighed, and fixed with 4% paraformaldehyde; then, histological analysis was performed via H&E staining.

P. aeruginosa 27853 = assay type: cell-based
Description: (§3) The MICs of the self‐assembling peptide nanoparticles were determined using the modified broth microdilution method.^[ [46] ^] The bacteria were resuspended in a logarithmic growth phase in a Mueller–Hinton broth (MHB) medium, the optical density (OD) at a wavelength of 600 nm was adjusted to ≈ 0.4, and the suspension was diluted 1000 times with MHB. In a 96‐well plate, the peptides were diluted via multiple dilutions using a 0.2% bovine serum albumin solution to a concentration range of 0.25 × 10^−6–128 × 10^−6 M. Subsequently, the diluted bacterial solution and peptide solution were mixed in a 1:1 ratio in a 96‐well plate and incubated at 37 °C. After 18–24 h, the absorbance at 492 nm was measured using a microplate reader. The MIC value was defined as the lowest peptide nanoparticle concentration without bacterial growth. Each test was performed in duplicate and repeated three times.

E. coli ATCC25922 = assay type: cell-based
Description: as §3

S. aureus ATCC6538 = assay type: cell-based
Description: as §3

HEK293T cells = assay: Cytotoxicity assay (MTT; SYTO9/PI live/dead imaging); assay type: cell-based, Human; conditions: 64 × 10^−6 M, 2 h, 37 °C, laser confocal microscope
Description: 3‐(4,5‐dimethylthiazol‐2‐yl)‐2,5‐diphenyltetrazolium bromide (MTT) dye was used to determine the cytotoxicity of the peptide nanoparticles.^[ [47] ^] Human embryonic kidney (HEK) 293T cells were seeded into 96‐well plates at a concentration of (1–2) × 10^5 cells per well in high glucose DMEM and placed in a cell incubator (5% CO2, 37 °C) for 24 h. After discarding the medium, peptides (100 µL) were added with a concentration range of 0.125 × 10^−6–64 × 10^−6 M to wells 1–10 of a 96‐well plate and incubated at 37 ℃ for 2 h. Samples without peptides were used as positive controls and samples without cells were used as negative controls. Subsequently, 20 µL of MTT (5 mg mL^−1) was added to each well before another 4 h of incubation. After discarding the supernatant, 150 µL of dimethyl sulfoxide was added to each well of the 96‐well plate, to fully dissolve the crystals; then, the absorbance at a wavelength of 570 nm was measured using a microplate reader. Each test was performed in duplicate and repeated three times. Cell viability was expressed as a percentage. For laser confocal microscope samples, after the peptides (the final concentration is 64 × 10^−6 M) were added to a 96‐well plate, the final concentration of 5 × 10^−6 M SYTO9 and 20 µg mL^−1 PI dye was added to a 96‐well plate, and incubated at 37 ℃ for 2 h. Cells were imaged using a laser scanning confocal microscope. A sample without peptide nanoparticles was used as a control.

S.epidermidis 49134 = assay type: cell-based
Description: as §3

S. aureus CVCC1882 = assay type: cell-based
Description: as §3

C. rodentium DBS100 = assay type: cell-based
Description: as §3

## CCCCCCCCCCCCCC(=O)N1CCC[C@H]1C(=O)N[C@@H](Cc1ccccc1)C(=O)N1CCC[C@H]1C(=O)N[C@@H](Cc1ccccc1)C(=O)N1CCC[C@H]1C(=O)N[C@@H](Cc1ccccc1)C(=O)N1CCC[C@H]1C(=O)N[C@@H](CCCCNC(=O)CCOCCOCCOCCOCCOCCOCCOCCOCCN)C(=O)N1CCC[C@H]1C(=O)N[C@@H](CCCCN)C(=O)N1CCC[C@H]1C(=O)N[C@@H](CCCCN)C(=O)N1CCC[C@H]1C(=O)N[C@@H](CCCCN)C(=O)N1CCC[C@H]1C(=O)N[C@@H](CCCCN)C(=O)N1CCC[C@H]1C(=O)N[C@@H](CCCCN)C(=O)N1CCC[C@H]1C(N)=O [NPs1] (Myristoyl-PFPFPFPK(PEG8)PKPKPKPKPKP-NH2)
Porcine red blood cells
  MHC: > 128
chymotrypsin
  Antibacterial activity (MIC) after treatment with chymotrypsin: remained essentially unchanged
trypsin
  Antibacterial activity (MIC) after treatment with trypsin: remained essentially unchanged
pepsin
  Antibacterial activity (MIC) after treatment with pepsin: remained essentially unchanged
  RP-HPLC peak shape and area after treatment with pepsin: remained intact
C57BL/6 mice
  Side effects on mice: negligible
P. aeruginosa 27853
  MIC P. aeruginosa 27853: 12.0 ± 4.0 µM (≈ 34 µg/mL)
E. coli ATCC25922
  MIC E. coli 25922: 9.3 ± 3.0 µM (≈ 26.3 µg/mL)
S. aureus ATCC6538
  MIC S. aureus 6538: 5.3 ± 1.9 µM (≈ 15 µg/mL)
HEK293T cells
  Live/dead (SYTO9/PI) imaging of HEK293T cells: only led to a few cell deaths

## CCCCCCCCCCCCCC(=O)N1CCC[C@H]1C(=O)N[C@@H](Cc1ccccc1)C(=O)N1CCC[C@H]1C(=O)N[C@@H](Cc1ccccc1)C(=O)N1CCC[C@H]1C(=O)N[C@@H](Cc1ccccc1)C(=O)N1CCC[C@H]1C(=O)N[C@@H](CCCCN)C(=O)N1CCC[C@H]1C(=O)N[C@@H](CCCCN)C(=O)N1CCC[C@H]1C(=O)N[C@@H](CCCCN)C(=O)N1CCC[C@H]1C(=O)N[C@@H](CCCCN)C(=O)N1CCC[C@H]1C(=O)N[C@@H](CCCCN)C(=O)N1CCC[C@H]1C(=O)N[C@@H](CCCCNC(=O)CCOCCOCCOCCOCCOCCOCCOCCOCCN)C(=O)N1CCC[C@H]1C(N)=O [NPs2] (Myristoyl-PFPFPFPKPKPKPKPKPK(PEG8)P-NH2)
Porcine red blood cells
  MHC: > 128
chymotrypsin
  Antibacterial activity (MIC) after treatment with chymotrypsin: remained essentially unchanged
trypsin
  Antibacterial activity (MIC) after treatment with trypsin: remained essentially unchanged
pepsin
  Antibacterial activity (MIC) after treatment with pepsin: remained essentially unchanged
  RP-HPLC peak shape and area after treatment with pepsin: remained intact
C57BL/6 mice
  Side effects on mice: negligible
S.epidermidis 49134
  MIC S.epidermidis 49134: 9.3 ± 3.0 µM (≈ 26.3 µg/mL)
S. aureus CVCC1882
  MIC S. aureus 1882: 10.0 ± 4.5 µM (≈ 28.3 µg/mL)
P. aeruginosa 27853
  MIC P. aeruginosa 27853: 13.3 ± 3.8 µM (≈ 37.7 µg/mL)
E. coli ATCC25922
  MIC E. coli 25922: 8 µM (≈ 22.7 µg/mL)
S. aureus ATCC6538
  MIC S. aureus 6538: 6.7 ± 1.9 µM (≈ 19 µg/mL)
C. rodentium DBS100
  MIC C. rodentium DBS100: 6.7 ± 1.9 µM (≈ 19 µg/mL)
HEK293T cells
  Live/dead (SYTO9/PI) imaging of HEK293T cells: only led to a few cell deaths

## CCCCCCCCCCCCCC(=O)N1CCC[C@H]1C(=O)N[C@@H](Cc1ccccc1)C(=O)N1CCC[C@H]1C(=O)N[C@@H](Cc1ccccc1)C(=O)N1CCC[C@H]1C(=O)N[C@@H](Cc1ccccc1)C(=O)N1CCC[C@H]1C(=O)N[C@@H](CCCCN)C(=O)N1CCC[C@H]1C(=O)N[C@@H](CCCCN)C(=O)N1CCC[C@H]1C(=O)N[C@@H](CCCCN)C(=O)N1CCC[C@H]1C(=O)N[C@@H](CCCCN)C(=O)N1CCC[C@H]1C(=O)N[C@@H](CCCCN)C(=O)N1CCC[C@H]1C(=O)N[C@@H](CCCCN)C(=O)N1CCC[C@H]1C(=O)NCCOCCOCCOCCOCCOCCOCCOCCOCCC(N)=O [NPs3] (Myristoyl-PFPFPFPKPKPKPKPKPKP[PEG8]-NH2)
Porcine red blood cells
  MHC: > 128
S.epidermidis 49134
  MIC S.epidermidis 49134: 9.3 ± 3.0 µM (≈ 26.3 µg/mL)
S. aureus CVCC1882
  MIC S. aureus 1882: 14.7 ± 3.0 µM (≈ 41.6 µg/mL)
P. aeruginosa 27853
  MIC P. aeruginosa 27853: 21.3 ± 7.5 µM (≈ 60.3 µg/mL)
E. coli ATCC25922
  MIC E. coli 25922: 9.3 ± 3.0 µM (≈ 26.3 µg/mL)
S. aureus ATCC6538
  MIC S. aureus 6538: 7.3 ± 1.5 µM (≈ 20.7 µg/mL)
HEK293T cells
  Live/dead (SYTO9/PI) imaging of HEK293T cells: only led to a few cell deaths

From publication PMC9109057, “Designing Self‐Assembling Chimeric Peptide Nanoparticles with High Stability for Combating Piglet Bacterial Infections” (Advanced Science, 2022)
